# Measured values published in patent publication US20090298820A1, “3-SUBSTITUTED-1H-PYRROLO[2,3-B]PYRIDINE AND 3-SUBSTITUTED-1H-PYRROLO[3,2-B]PYRIDINE COMPOUNDS, THEIR USE AS MTOR KINASE AND PI3 KINASE INHIBITORS, AND THEIR SYNTHESES” (Wyeth, priority 2008, published 2009).
# How the values were obtained:
# mTOR = mTOR (Homo sapiens, UniProt P42345); assay: mTOR enzyme assay (DELFIA format, His6-S6K substrate); assay type: biochemical; conditions: read-out: mTOR Kinase Median IC50
# PI3Kγ = PI3Kγ (Homo sapiens, UniProt P48736); assay: PI3K-gamma fluorescence polarization assay; assay type: biochemical; conditions: read-out: PI3Kγ Median IC50
# PI3Kα = PI3Kα (Homo sapiens, UniProt P42336); assay: PI3K-alpha fluorescence polarization assay; assay type: biochemical; conditions: read-out: PI3Kα Median IC50
# Chain of PI3Kα (P42336 whole entry, species assumed): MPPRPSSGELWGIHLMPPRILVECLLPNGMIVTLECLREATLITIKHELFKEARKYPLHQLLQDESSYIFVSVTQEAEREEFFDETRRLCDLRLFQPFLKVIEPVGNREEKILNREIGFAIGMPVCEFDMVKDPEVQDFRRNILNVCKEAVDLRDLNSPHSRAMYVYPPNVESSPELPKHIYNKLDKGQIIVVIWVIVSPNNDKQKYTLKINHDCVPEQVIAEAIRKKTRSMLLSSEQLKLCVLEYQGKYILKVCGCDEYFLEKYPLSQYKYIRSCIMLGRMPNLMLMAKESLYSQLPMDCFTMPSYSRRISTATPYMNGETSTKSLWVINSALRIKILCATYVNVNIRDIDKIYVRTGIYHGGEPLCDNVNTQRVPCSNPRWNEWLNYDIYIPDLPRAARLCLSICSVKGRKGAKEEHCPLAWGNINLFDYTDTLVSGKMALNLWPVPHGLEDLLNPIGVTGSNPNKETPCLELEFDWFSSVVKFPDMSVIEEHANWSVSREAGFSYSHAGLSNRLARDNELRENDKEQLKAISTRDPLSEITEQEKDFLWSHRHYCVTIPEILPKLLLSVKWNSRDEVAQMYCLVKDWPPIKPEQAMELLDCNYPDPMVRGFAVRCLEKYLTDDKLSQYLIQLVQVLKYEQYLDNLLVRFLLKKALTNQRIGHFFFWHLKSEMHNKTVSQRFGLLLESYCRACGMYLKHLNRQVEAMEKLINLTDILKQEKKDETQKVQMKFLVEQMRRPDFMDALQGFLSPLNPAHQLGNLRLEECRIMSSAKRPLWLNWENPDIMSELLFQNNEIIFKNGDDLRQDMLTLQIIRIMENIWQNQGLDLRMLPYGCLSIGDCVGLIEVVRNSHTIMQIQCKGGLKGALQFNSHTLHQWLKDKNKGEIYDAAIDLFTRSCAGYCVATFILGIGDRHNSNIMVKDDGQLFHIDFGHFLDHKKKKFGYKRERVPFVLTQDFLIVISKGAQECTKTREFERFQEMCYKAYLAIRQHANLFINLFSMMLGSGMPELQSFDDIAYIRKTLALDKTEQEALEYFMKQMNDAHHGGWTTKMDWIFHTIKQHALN
# Chain of PI3Kα (P27986 whole entry partner, species assumed): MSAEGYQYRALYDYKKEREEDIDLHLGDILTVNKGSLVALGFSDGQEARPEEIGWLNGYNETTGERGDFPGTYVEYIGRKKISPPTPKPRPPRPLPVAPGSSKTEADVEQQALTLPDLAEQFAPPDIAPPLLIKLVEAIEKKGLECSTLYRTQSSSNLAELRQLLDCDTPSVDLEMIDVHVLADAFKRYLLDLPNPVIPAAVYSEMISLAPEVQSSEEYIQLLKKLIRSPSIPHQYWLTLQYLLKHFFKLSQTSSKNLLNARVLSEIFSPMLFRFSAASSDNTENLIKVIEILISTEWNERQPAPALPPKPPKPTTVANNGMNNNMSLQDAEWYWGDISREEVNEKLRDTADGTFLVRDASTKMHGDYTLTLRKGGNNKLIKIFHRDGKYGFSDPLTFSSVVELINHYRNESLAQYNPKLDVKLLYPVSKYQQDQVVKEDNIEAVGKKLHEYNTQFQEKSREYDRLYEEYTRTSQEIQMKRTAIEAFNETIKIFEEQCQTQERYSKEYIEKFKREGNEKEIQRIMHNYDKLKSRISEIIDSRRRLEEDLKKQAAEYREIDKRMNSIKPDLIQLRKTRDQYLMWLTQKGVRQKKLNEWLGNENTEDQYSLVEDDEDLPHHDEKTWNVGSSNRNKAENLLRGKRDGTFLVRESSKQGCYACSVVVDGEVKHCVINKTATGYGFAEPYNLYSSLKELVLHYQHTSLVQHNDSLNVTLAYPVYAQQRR
# Chain of PI3Kγ (P48736 whole entry, species assumed): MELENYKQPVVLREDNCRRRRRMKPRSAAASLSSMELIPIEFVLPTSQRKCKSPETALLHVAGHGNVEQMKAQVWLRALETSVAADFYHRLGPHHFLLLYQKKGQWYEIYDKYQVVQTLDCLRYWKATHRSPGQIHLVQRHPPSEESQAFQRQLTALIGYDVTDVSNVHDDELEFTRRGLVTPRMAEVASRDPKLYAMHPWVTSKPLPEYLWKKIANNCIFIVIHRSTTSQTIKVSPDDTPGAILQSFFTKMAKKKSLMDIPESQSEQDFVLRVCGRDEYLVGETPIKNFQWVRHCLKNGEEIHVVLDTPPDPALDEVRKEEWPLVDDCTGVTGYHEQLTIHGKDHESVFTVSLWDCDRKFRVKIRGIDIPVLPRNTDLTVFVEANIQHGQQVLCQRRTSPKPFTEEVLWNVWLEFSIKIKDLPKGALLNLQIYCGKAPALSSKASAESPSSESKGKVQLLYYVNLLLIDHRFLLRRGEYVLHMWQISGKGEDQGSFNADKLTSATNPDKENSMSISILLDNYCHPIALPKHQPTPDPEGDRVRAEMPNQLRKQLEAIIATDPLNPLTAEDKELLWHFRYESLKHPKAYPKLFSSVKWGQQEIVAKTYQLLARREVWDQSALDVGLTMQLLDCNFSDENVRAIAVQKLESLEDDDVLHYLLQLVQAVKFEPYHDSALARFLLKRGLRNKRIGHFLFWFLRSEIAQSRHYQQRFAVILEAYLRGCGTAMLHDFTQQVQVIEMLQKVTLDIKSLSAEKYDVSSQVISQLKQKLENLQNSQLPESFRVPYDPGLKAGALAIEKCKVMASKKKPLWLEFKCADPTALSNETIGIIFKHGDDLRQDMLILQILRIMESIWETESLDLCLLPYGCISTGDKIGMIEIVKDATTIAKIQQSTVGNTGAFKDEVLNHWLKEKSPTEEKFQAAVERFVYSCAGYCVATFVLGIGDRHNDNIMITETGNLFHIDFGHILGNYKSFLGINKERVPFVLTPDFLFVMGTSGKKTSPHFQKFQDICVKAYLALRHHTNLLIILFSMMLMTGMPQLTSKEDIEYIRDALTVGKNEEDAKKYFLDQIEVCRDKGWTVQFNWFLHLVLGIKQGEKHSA
Compound,IC50 (mTOR) [nM],IC50 (PI3Kγ) [nM],melting point [°C],IC50 (PI3Kα) [nM]
"Cn1cc(/C=C2\Oc3cccc(NC(=O)C(C)(C)C)c3C2=O)c2c(-c3ccccc3)ccnc21 [Compound 68, 2,2-dimethyl-N-{(2Z)-2-[(1-methyl-4-phenyl-1H-pyrrolo[2,3-b]pyridin-3-yl)methylene]-3-oxo-2,3-dihydro-1-benzofuran-4-yl}propanamide]",> 4000,1800,251 to 253,> 10000
"COc1ccc(-c2ccnc3c2c(/C=C2\Oc4cccc(O)c4C2=O)cn3C)cn1 [Compound 71, (2Z)-4-hydroxy-2-{[4-(6-methoxypyridin-3-yl)-1-methyl-1H-pyrrolo[2,3-b]pyridin-3-yl]methylene}-1-benzofuran-3(2H)-one]",16,249,242 to 244,62
"Cn1cc(/C=C2\Oc3cc(O)cc(O)c3C2=O)c2c(-c3ccc(S(C)(=O)=O)cc3)ccnc21 [Compound 72, (2Z)-4,6-dihydroxy-2-({1-methyl-4-[4-(methylsulfonyl)phenyl]-1H-pyrrolo[2,3-b]pyridin-3-yl}methylene)-1-benzofuran-3(2H)-one]",0.7,66,276 to 286,5
"Cn1cc(/C=C2\Oc3cc(O)cc(O)c3C2=O)c2c(-c3cccc(S(C)(=O)=O)c3)ccnc21 [Compound 74, (2Z)-4,6-dihydroxy-2-({1-methyl-4-[3-(methylsulfonyl)phenyl]-1H-pyrrolo[2,3-b]pyridin-3-yl}methylene)-1-benzofuran-3(2H)-one]",1.6,132,315 to 320,14
"Cn1cc(/C=C2\Oc3cccc(O)c3C2=O)c2c(-c3cccc(S(C)(=O)=O)c3)ccnc21 [Compound 75, (2Z)-4-hydroxy-2-({1-methyl-4-[3-(methylsulfonyl)phenyl]-1H-pyrrolo[2,3-b]pyridin-3-yl}methylene)-1-benzofuran-3(2H)-one]",10.3,319,310 to 318,92
"Cn1cc(/C=C2\Oc3cccc(O)c3C2=O)c2c(-c3ccc(CO)nc3)ccnc21 [Compound 76, (2Z)-4-hydroxy-2-({4-[6-(hydroxymethyl)pyridin-3-yl]-1-methyl-1H-pyrrolo[2,3-b]pyridin-3-yl}methylene)-1-benzofuran-3(2H)-one]",8.5,132,270 to 275,41
"CC1CN(c2ccnc3c2c(/C=C2\Oc4cccc(O)c4C2=O)cn3C)CC(C)O1 (stereo not drawn) [Compound 93, (2Z)-2-{[4-(2,6-dimethylmorpholin-4-yl)-1-methyl-1H-pyrrolo[2,3-b]pyridin-3-yl]methylene}-4-hydroxy-1-benzofuran-3(2H)-one]",1.3,124,280,85
"Cn1cc(/C=C2\Oc3cc(O)cc(O)c3C2=O)c2c(Oc3ccccc3)ccnc21 [Compound 94, (2Z)-4,6-dihydroxy-2-[(1-methyl-4-phenoxy-1H-pyrrolo[2,3-b]pyridin-3-yl)methylene]-1-benzofuran-3(2H)-one]",10.5,351,330 to 332,43
"Cn1cc(/C=C2\Oc3cccc(O)c3C2=O)c2c(O)ccnc21 [Compound 95, (2Z)-4-hydroxy-2-[(4-hydroxy-1-methyl-1H-pyrrolo[2,3-b]pyridin-3-yl)methylene]-1-benzofuran-3(2H)-one]",2000,3240,325,479
"CNC(=O)Nc1cccc2c1C(=O)/C(=C/c1cn(C)c3nccc(-c4ccccc4)c13)O2 [Compound 99, 1-methyl-3-{(2Z)-2-[(1-methyl-4-phenyl-1H-pyrrolo[2,3-b]pyridin-3-yl)methylene]-3-oxo-2,3-dihydro-1-benzofuran-4-yl}urea]",3500,2230,273 to 275,> 10000
"CC1CC(C)CN(c2ccnc3c2c(/C=C2\Oc4cccc(O)c4C2=O)cn3C)C1 (stereo not drawn) [Compound 100, (2Z)-2-{[4-(3,5-dimethylpiperidin-1-yl)-1-methyl-1H-pyrrolo[2,3-b]pyridin-3-yl]methylene}-4-hydroxy-1-benzofuran-3(2H)-one]",15,> 10000,235 to 240,806
"Cn1cc(/C=C2\Oc3cccc(O)c3C2=O)c2c(N3CC4CC3CN4)ccnc21 (stereo not drawn) [Compound 101, (2Z)-2-{[4-(2,5-diazabicyclo[2.2.1]hept-2-yl)-1-methyl-1H-pyrrolo[2,3-b]pyridin-3-yl]methylene}-4-hydroxy-1-benzofuran-3(2H)-one]",10.8,339,325,20
"Cn1cc(/C=C2\Oc3cccc(O)c3C2=O)c2c(N3CCSCC3)ccnc21 [Compound 102, (2Z)-4-hydroxy-2-[(1-methyl-4-thiomorpholin-4-yl-1H-pyrrolo[2,3-b]pyridin-3-yl)methylene]-1-benzofuran-3(2H)-one]",1.9,271,285 to 290,104
"Cn1cc(/C=C2\Oc3cccc(O)c3C2=O)c2c(-c3cccc(C(=O)N4CCCC4)c3)ccnc21 [Compound 103, (2Z)-4-hydroxy-2-({1-methyl-4-[3-(pyrrolidin-1-ylcarbonyl)phenyl]-1H-pyrrolo[2,3-b]pyridin-3-yl}methylene)-1-benzofuran-3(2H)-one]",6.6,169,233 to 235,182
"Cn1cc(/C=C2\Oc3cccc(O)c3C2=O)c2c(N3CCN(C(=O)N4CCCC4)CC3)ccnc21 [Compound 104, (2Z)-4-hydroxy-2-({1-methyl-4-[4-(pyrrolidin-1-ylcarbonyl)piperazin-1-yl]-1H-pyrrolo[2,3-b]pyridin-3-yl}methylene)-1-benzofuran-3(2H)-one]",2.9,245,223 to 225,70
"Cn1cc(/C=C2\Oc3cccc(O)c3C2=O)c2c(N3CC4(C)CC3CC(C)(C)C4)ccnc21 (stereo not drawn) [Compound 105, (2Z)-4-hydroxy-2-{[1-methyl-4-(1,3,3-trimethyl-6-azabicyclo[3.2.1]oct-6-yl)-1H-pyrrolo[2,3-b]pyridin-3-yl]methylene}-1-benzofuran-3(2H)-one]",69,> 10000,220 to 223,> 10000
"Cn1cc(/C=C2\Oc3cccc(O)c3C2=O)c2c(-c3ccc(C(F)(F)F)cc3)ccnc21 [Compound 106, (2Z)-4-hydroxy-2-({1-methyl-4-[4-(trifluoromethyl)phenyl]-1H-pyrrolo[2,3-b]pyridin-3-yl}methylene)-1-benzofuran-3(2H)-one]",7.4,> 10000,244 to 254,6010
"Cn1cc(/C=C2\Oc3cccc(O)c3C2=O)c2c(-c3cccc(C(F)(F)F)c3)ccnc21 [Compound 107, (2Z)-4-hydroxy-2-({1-methyl-4-[3-(trifluoromethyl)phenyl]-1H-pyrrolo[2,3-b]pyridin-3-yl}methylene)-1-benzofuran-3(2H)-one]",12.3,676,262 to 265,386
